Assay results: article PMC2861162, “Purified TPC Isoforms Form NAADP Receptors with Distinct Roles for Ca^2+ Signaling and Endolysosomal Trafficking” (Current Biology, 2010)

What was measured:
SpTPC3 = molecular target: T1, SpTPC3 (Strongylocentrotus purpuratus, UniProt B8PXK0); test: […]NAADP competition binding on immunoprecipitate; details: competitor against [32P]NAADP; immunopurified native complex; K+-dependent irreversible binding
T1 construct: endogenous full-length protein immunoprecipitated with anti-SpTPC3 serum from solubilized egg membranes (S10P100 fraction); possibly homodimer; may carry associated proteins
T1 sequence (B8PXK0 1-840): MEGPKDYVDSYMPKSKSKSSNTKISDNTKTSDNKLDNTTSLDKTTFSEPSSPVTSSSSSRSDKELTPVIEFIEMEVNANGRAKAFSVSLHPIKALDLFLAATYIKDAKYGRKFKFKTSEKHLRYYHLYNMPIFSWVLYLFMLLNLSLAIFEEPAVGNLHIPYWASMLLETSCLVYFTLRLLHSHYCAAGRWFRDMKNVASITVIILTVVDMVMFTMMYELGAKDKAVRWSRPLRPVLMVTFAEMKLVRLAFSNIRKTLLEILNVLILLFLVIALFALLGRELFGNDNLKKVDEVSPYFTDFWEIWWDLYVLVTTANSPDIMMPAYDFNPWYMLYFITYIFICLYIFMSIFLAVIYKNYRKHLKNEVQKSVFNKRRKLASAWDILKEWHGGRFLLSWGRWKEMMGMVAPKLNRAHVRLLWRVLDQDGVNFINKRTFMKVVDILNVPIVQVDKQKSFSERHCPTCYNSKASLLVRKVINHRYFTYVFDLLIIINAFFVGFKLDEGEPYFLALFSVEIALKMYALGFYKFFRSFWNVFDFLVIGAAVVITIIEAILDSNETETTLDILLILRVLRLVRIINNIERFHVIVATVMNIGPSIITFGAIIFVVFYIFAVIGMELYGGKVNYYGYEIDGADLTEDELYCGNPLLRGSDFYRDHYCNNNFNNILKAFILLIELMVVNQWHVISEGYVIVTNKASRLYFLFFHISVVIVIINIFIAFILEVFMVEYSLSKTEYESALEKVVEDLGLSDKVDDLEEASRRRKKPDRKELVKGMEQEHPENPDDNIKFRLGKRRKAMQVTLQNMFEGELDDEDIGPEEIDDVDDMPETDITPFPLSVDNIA

SpTPC1 = molecular target: T2, SpTPC1 (Strongylocentrotus purpuratus, UniProt B8PXJ8); test: as above; details: competitor against [32P]NAADP; immunopurified native complex; K+-dependent irreversible binding
T2 construct: endogenous full-length protein immunoprecipitated with anti-SpTPC1 serum from solubilized egg membranes (S10P100 fraction); native complex, may carry associated proteins
T2 sequence (B8PXJ8 1-882): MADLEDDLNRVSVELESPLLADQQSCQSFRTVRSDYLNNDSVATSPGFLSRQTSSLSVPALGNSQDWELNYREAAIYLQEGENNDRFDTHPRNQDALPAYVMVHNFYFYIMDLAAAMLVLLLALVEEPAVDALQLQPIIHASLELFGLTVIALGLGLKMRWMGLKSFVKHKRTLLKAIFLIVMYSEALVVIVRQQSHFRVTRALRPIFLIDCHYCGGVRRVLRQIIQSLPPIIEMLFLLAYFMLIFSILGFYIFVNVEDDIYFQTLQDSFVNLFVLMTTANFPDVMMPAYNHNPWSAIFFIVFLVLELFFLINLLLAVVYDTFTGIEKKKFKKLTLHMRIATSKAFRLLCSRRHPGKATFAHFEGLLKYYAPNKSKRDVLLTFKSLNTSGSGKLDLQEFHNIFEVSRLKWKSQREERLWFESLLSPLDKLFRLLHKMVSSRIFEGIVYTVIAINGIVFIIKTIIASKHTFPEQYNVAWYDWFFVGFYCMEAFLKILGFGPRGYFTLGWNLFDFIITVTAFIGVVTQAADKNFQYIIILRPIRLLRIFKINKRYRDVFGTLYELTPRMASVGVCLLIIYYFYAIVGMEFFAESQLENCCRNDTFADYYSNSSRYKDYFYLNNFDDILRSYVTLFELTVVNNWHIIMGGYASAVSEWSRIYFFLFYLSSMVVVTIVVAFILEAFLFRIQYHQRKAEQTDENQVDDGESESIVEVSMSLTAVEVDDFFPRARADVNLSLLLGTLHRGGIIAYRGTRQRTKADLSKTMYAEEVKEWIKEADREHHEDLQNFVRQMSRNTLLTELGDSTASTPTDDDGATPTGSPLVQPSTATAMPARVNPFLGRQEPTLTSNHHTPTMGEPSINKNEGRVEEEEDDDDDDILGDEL

## Nc1ncnc2c1ncn2[C@@H]1O[C@H](COP(=O)(O)OP(=O)(O)OC[C@H]2O[C@@H]([n+]3cccc(C(=O)O)c3)[C@H](O)[C@@H]2O)[C@@H](O)[C@H]1OP(=O)(O)O [NAADP]
SpTPC3
  IC50: 0.9 nM
SpTPC1
  IC50: 1.4 nM
